No end group written: not given here.
Tested on: ob/ob mice
Assay: Once daily i.p. (Pro3)GIP over 11 days in ob/ob mice (Example 5)
Assay type: in vivo, mouse
Description: Animals. Obese diabetic (ob/ob) mice derived from the colony maintained at Aston University, UK (Bailey, C. J., et al., 1982, Int. J. Obes. 6:11-21) were used at 12-16 weeks of age. Animals were age-matched, divided into groups and housed individually in an air-conditioned room at 22±2° C. with a 12 hour light: 12 hour dark cycle. Drinking water and a standard rodent maintenance diet (Trouw Nutrition, Cheshire, UK) were freely available. All animal experiments were carried out in accordance with the UK Animals (Scientific Procedures) Act 1986.
Experimental protocols for ob/ob mouse studies. Initially, extended biological activity of (Pro^3)GIP was examined in 18-hour fasted ob/ob mice 4 hours after administration. Thereafter, over an 11-day period, mice received once daily i.p. injections (17:00 hours) of either saline vehicle (0.9% (w/v), NaCl) or (Pro^3)GIP (25 nmol/kg body wt). During a subsequent 9-day period, observations were continued following discontinuation of (Pro^3)GIP administration. Food intake and body weight were recorded daily whilst plasma glucose and insulin concentrations were monitored at intervals of 2-6 days. Whole blood for the measurement of glycated hemoglobin was taken on days 11 and 20. Intraperitoneal glucose tolerance (18 mmol/kg body wt), metabolic response to native GIP (25 nmol/kg body wt) and insulin sensitivity (50 U/kg body wt) tests were performed on days 11 and 20. Mice fasted for 18 hours were used to examine the metabolic response to 15 minutes feeding. In a separate series, pancreatic tissues were excised at the end of the 11-day treatment period or 9 days following discontinuation of (Pro^3)GIP and processed for immunohistochemistry or measurement of insulin following extraction with 5 ml/g of ice-cold acid ethanol (750 ml ethanol, 235 ml water, 15 ml concentrated HCl). Blood samples taken from the cut tip of the tail vein of conscious mice at the times indicated in the Figures were immediately centrifuged using a Beckman microcentrifuge (Beckman Instruments, UK) for 30 seconds at 13,000 g. The resulting plasma was then aliquoted into fresh Eppendorf tubes and stored at −20° C. prior to glucose and insulin determinations.
Biochemical analysis. Plasma glucose was assayed by an automated glucose oxidase procedure (Stevens, J. F., 1971, Clin. Chem. Acta 32:199-201) using a Beckman Glucose Analyzer II (Beckman Instruments, Galway, Ireland). Plasma and pancreatic insulin were assayed by a modified dextran-coated charcoal radioimmunoassay (Flatt, P. R. et al., 1981, Diabetologia 20:573-577). Glycated hemoglobin was determined using cation-exchange columns (Sigma, Poole, Dorset, UK) with measurement of absorbance (415 nm) in wash and eluting buffer using a VersaMax Microplate Spectrophotometer (Molecular Devices, Wokingham, Berkshire, UK).
Immunocytochemistry. Tissue fixed in 4% paraformaldehyde/PBS and embedded in paraffin was sectioned at 8 μm. After de-waxing, sections were incubated with blocking serum (Vector Laboratories, Calif., USA) prior to exposure to insulin antibody. Tissue samples were then incubated consecutively with secondary biotinylated universal, pan-specific antibody (Vector Laboratories, Calif., USA) and streptavidin/peroxidase preformed complex (Vector Laboratories, Calif., USA). Following washing, the stained pancreatic tissue was counterstained with hematoxylin (BDH Chemicals, Dorset, UK) and then plunged into acid methanol (500 ml methanol, 500 ml H2O and 2.5 ml concentrated HCl) prior to dehydration and mounting in Depex (BDH Chemicals, Dorset, UK). The stained slides were viewed under a microscope (Nikon Eclipse E2000, Diagnostic Instruments Incorporated, Michigan, USA) attached to a JVC camera Model KY-F55B (JVC, London, UK) and analyzed using Kromoscan imaging software (Kinetic Imaging Limited, Faversham, Kent, UK). […]

[1] = 4 hours after 25 nmoles/kg, 18 h fasted, vs saline

YAPGTFISDYSIAMDKIHQQDFVNWLLAQKGKKNDWKHNITQ [(Pro^3)GIP]
reduction of non-fasting plasma glucose levels (25 nmol/kg/day i.p., 11 days, vs controls): 1.6 fold | reduction of overall glycemic excursion (AUC) to a glucose load (25 nmol/kg/day i.p., 11 days, vs controls (abstract of Example 5)): 1.6 fold | decrease of AUC insulin in response to native GIP with glucose [1]: 25% | increase of AUC glucose in response to native GIP with glucose [1]: 151% | glycated hemoglobin (9 days following cessation of daily injection): 7.7±0.4% | average islet diameter (11 days treatment): markedly and significantly reduced | enhancement of insulin sensitivity (11 days treatment): 1.6 fold | islet number per pancreatic section (11 days treatment): No significant differences | lowering of overall plasma glucose response to feeding (11 days treatment): 1.4 fold | lowering of overall plasma insulin response to feeding (11 days treatment): 1.5 fold | pancreatic weight (11 days treatment): no effect | plasma insulin AUC 0-60 minutes after i.p. glucose (11 days treatment): significantly decreased | reduction of pancreatic insulin content (11 days treatment): 1.3 fold | reduction of plasma glucose AUC 0-60 minutes after i.p. glucose (11 days treatment, glucose 18 mmoles/kg, vs controls): 2.1 fold | hypoglycemic action of insulin (AUC and post injection values) (11 days treatment, insulin 50 U/kg i.p.): significantly (P<0.05) augmented | pancreatic insulin content (11 days treatment, vs controls): significantly (P<0.05) decreased | glycated hemoglobin (after 11 days treatment): 6.9±0.2% | glycated hemoglobin (before treatment): 8.0±0.3% | body weight (daily 25 nmol/kg, 11 days): no effect | food intake (daily 25 nmol/kg, 11 days): no effect | non-fasting plasma glucose (day 11): significantly reduced | plasma insulin levels (during or after the treatment period): No significant changes | adverse effects (following administration to ob/ob mice): No adverse effects were observed | increase in the glucose-lowering action of exogenous insulin (insulin sensitivity test after 11 days): 57%
